Results as given in article PMC7316778 (Nature Communications, 2020).
“And” between values parts separate entries of the source, which are not always exact repeats. Equal entries are not always repeated.

Key:
[1] = system: FES^S700C HL-60 neutrophils; assay: Phagocytosis assay with GFP-expressing E. coli; type: cell-based, human
Experimental: HL-60 cells were differentiated to neutrophils as described above. Cells were counted and centrifuged (200g, 5 min), followed by resuspension in growth medium without antibiotics. Cells were incubated with vehicle or inhibitor (from 1000x concentrated stocks in DMSO) for 1 h at 37 °C prior to infection (1×10^6 cells in 900 µL in 12-well plate). Meanwhile, E. coli B834(DE3) constitutively expressing GFP^A206K were grown in LB medium to an OD600 of 0.4–1.0, after which bacteria were centrifuged (2000g, 5 min), washed and resuspended in PBS to appropriate density. Neutrophils were infected by addition of bacteria at multiplicity of infection (MOI) of 30 unless stated otherwise. Cells were then incubated for 1 h at 37 °C unless stated otherwise, after which cells were resuspended and transferred to Eppendorf tubes, washed in FACS buffer (1 mL, 500g, 3 min) and fixed in 1% PFA in PBS (15 min, 4 °C, in the dark). Samples were further processed as described above.
Events (generally 20,000 per condition) were gated by forward and side scatter (cells), side scatter area (singlets) and the percentage of GFP-positive cells and GFP mean fluorescence intensity (MFI) were determined based on background fluorescence for non-infected cells. The GREEN-B channel (525/30 filter) was used to detect GFP.

FER^WT = FER^WT (Homo sapiens, UniProt P16591); assay: In vitro TR-FRET kinase assay
FES^WT = molecular target: T1, FES^WT (Homo sapiens, UniProt P07332); assay: In vitro TR-FRET kinase assay; type: biochemical; details: for IC50: TR-FRET assay, 5 µM ATP, n = 3, read-out: pIC50 FES^WT (converted)
T1 construct: human FES cDNA encoding residues 448–822 or human FER cDNA encoding residues 448–820 was amplified by PCR; made in house; host or cells: E. coli BL21(DE3), co-expressing YopH phosphatase
Experimental: All measurements were performed in triplicate.

T1 sequence (P07332 448-822): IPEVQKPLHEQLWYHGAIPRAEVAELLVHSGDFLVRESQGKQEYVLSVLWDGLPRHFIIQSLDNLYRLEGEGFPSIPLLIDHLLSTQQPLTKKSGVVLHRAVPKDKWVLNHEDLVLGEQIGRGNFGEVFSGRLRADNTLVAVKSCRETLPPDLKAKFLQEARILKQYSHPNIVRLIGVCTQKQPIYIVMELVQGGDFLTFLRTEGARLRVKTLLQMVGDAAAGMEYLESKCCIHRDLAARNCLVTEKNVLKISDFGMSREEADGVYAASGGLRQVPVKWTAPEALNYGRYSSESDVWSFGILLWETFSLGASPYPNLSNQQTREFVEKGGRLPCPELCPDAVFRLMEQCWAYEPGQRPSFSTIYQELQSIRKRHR
FER^WT, sequence (P16591 448-820): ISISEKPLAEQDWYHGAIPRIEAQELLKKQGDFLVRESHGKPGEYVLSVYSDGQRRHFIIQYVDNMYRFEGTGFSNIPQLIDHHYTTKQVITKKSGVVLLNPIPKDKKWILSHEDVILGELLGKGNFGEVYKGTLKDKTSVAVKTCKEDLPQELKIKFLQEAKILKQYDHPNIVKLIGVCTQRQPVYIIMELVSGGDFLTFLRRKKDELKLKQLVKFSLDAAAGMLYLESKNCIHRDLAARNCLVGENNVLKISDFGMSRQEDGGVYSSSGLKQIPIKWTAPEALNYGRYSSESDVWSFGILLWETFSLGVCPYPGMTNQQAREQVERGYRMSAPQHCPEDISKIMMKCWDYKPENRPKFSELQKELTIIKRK

Compound	Phagocytic index ([1]; Figure 7i, replicates)	Phagocytosis ([1]; R406 1 µM)	Residual activity (%) WT Mean (FER^WT; log[inhibitor] (M) -5) [%]	Residual activity (%) WT Mean (FER^WT; log[inhibitor] (M) -5.52288) [%]	Residual activity (%) WT Mean (FER^WT; log[inhibitor] (M) -6) [%]	Residual activity (%) WT Mean (FER^WT; log[inhibitor] (M) -6.52288) [%]	Residual activity (%) WT Mean (FER^WT; log[inhibitor] (M) -7) [%]	Residual activity (%) WT Mean (FER^WT; log[inhibitor] (M) -7.52288) [%]	Residual activity (%) WT Mean (FER^WT; log[inhibitor] (M) -8) [%]	Residual activity (%) WT Mean (FER^WT; log[inhibitor] (M) -8.52288) [%]	Residual activity (%) WT Mean (FER^WT; log[inhibitor] (M) -9) [%]	Residual activity (%) WT Mean (FER^WT; log[inhibitor] (M) -9.52288) [%]	Residual activity (%) WT Mean (FER^WT; log[inhibitor] (M) -10) [%]	Residual activity (%) WT Mean (FER^WT; log[inhibitor] (M) -10.5229) [%]	Residual activity (%) WT Mean (FER^WT; log[inhibitor] (M) -11) [%]	IC50 (FES^WT) [nM]	IC50 (FER^WT) [nM]	Km (FES^WT; FES^WT, TR-FRET, 60 min, read-out: ATP KM) [µM]	Km (FER^WT; read-out: ATP KM, FER^WT) [µM]
COc1cc(Nc2ncc(F)c(Nc3ccc4c(n3)NC(=O)C(C)(C)O4)n2)cc(OC)c1OC [Compound R406, R406]	212.415 and 224.559 and 218.427 and 271.225 and 264.489	reduced phagocytosis to similar levels as observed for WEL028																	
C#CCOc1ccc(Nc2ncc(Cl)c(Nc3ccccc3NC(=O)C=C)n2)c(OC)c1 [Supplementary Figure 8f]			5.2329	3.792	14.1153	25.7365	62.4124	74.9371	97.3541	92.3988	107.069	97.7799	105.81	90.1497	111.768				
COc1ccccc1Nc1ncc(Cl)c(Nc2ccccc2S(=O)(=O)C(C)C)n1 [Compound 2]																50.1	5.01		
CCC(=O)Nc1ccccc1Nc1nc(Nc2ccccc2OC)ncc1Cl [Compound 5]																> 10000	126		
Nc1ncnc2c1ncn2[C@@H]1O[C@H](COP(=O)(O)OP(=O)(O)OP(=O)(O)O)[C@@H](O)[C@H]1O [ATP]																		1.9	11
C=CC(=O)Nc1ccccc1Nc1nc(Nc2ccccc2OC)ncc1Cl [Supplementary Figure 8d]			4.829	6.417	19.305	38.3519	71.19	87.6084	99.295	98.6881	106.616	102.334	107.184	102.376	116.944				
COc1ccccc1Nc1ncc(Cl)c(Nc2ccccc2S(=O)(=O)C(C)C)n1 [Supplementary Figure 8c]			0.06517	0.1492	-0.06836	0.8273	4.343	12.0728	31.4398	59.2785	83.3824	101.278	106.348	105.352	108.85				
